Here are results for 17 molecules from US9937214B2, “Lactobacillus crispatus and application thereof” (priority 2013, dated 2018).

In the test the test system is Lactobacillus crispatus 262-1. Kind of test: Antibiotic sensitivity test, agar-diffusion paper-disc method. On Inhibition zone diameter: test concentration or dose not given here. The test is classed as cell-based. The settings on record: for Inhibition zone diameter: paper content/sheet per antibiotic as in Table 3; for Sensitivity determination: T0 generation, three levels: sensitivity, mediation, drug resistance, criteria of reference bacteria; for Sensitivity determination (passage stability test): embodiment 6. Background: A growth-free zone around the sample is the usual read-out of agar diffusion tests.

Positions of bridges follow the written chain, without caps; N, C: chain ends. Non-standard residues stand in square brackets, D forms with d. Residues, ends and D or L forms follow the SMILES beside them. *: point of attachment. Ileψ(thiazoline)Cys = CC[C@H](C)[C@H](N)C1=N[C@H](C(=O)*)CS1; dOrn = NCCC[C@@H](N)C(=O)O

As for `CCN1CCN(C(=O)N[C@@H](C(=O)N[C@@H]2C(=O)N3[C@@H]2SC(C)(C)[C@@H]3C(=O)O)c2ccccc2)C(=O)C1=O` [Piperacillin], the Sensitivity determination entry is recorded as “Sensitivity”. In addition, under “T0 generation of the strain”, the Inhibition zone diameter worked out at 35 mm. Also, under “listed as piperacillin”, the Sensitivity determination entry was “sensitivity”. In addition, the Inhibition zone diameter (T30 generation of the strain) is listed as 37 mm. Under “T50 generation of the strain”, this molecule gave an Inhibition zone diameter of 35 mm.
`NC[C@H]1O[C@H](O[C@H]2[C@H](O)[C@@H](O[C@H]3O[C@H](CO)[C@@H](O)[C@H](N)[C@H]3O)[C@H](N)C[C@@H]2N)[C@H](O)[C@@H](O)[C@@H]1O` [Kanamycin]: the Inhibition zone diameter runs as follows: (T0 generation of the strain) 0 mm; (T30 generation of the strain) 0 mm; (T50 generation of the strain) 0 mm.
`O=C(N[C@H](CO)[C@H](O)c1ccc([N+](=O)[O-])cc1)C(Cl)Cl` [Chloramphenicol]: the Sensitivity determination entry is listed as “Sensitivity”. The Inhibition zone diameter (T0 generation of the strain) is recorded as 35 mm. The Sensitivity determination entry (listed as chloromycetin) is “sensitivity”. Moreover, the Inhibition zone diameter (T30 generation of the strain) stood at 36 mm. The same molecule displayed an Inhibition zone diameter (T50 generation of the strain) of 35 mm.
With Penicillin, the Sensitivity determination entry is given as “Mediation” and the “Sensitivity determination (passage stability test)” value is “mediation”. This molecule also displayed an Inhibition zone diameter (T0 generation of the strain) of 24 mm. Moreover, for the setting “listed as penicillin”, the Sensitivity determination result is “mediation”. In addition, under “T30 generation of the strain”, the Inhibition zone diameter turned out to be 25 mm. In addition, the Inhibition zone diameter (T50 generation of the strain) amounted to 24 mm.
With `CN[C@H](CC(C)C)C(=O)N[C@H]1C(=O)N[C@@H](CC(N)=O)C(=O)N[C@H]2C(=O)N[C@H]3C(=O)N[C@H](C(=O)N[C@H](C(=O)O)c4cc(O)cc(O)c4-c4cc3ccc4O)[C@H](O)c3ccc(c(Cl)c3)Oc3cc2cc(c3O[C@@H]2O[C@H](CO)[C@@H](O)[C@H](O)[C@H]2O[C@H]2C[C@](C)(N)[C@H](O)[C@H](C)O2)Oc2ccc(cc2Cl)[C@H]1O` [Vancomycin], the Sensitivity determination entry was “Sensitivity” and the “Sensitivity determination (passage stability test)” value is on record as “mediation”. This molecule also yielded an Inhibition zone diameter (T0 generation of the strain) of 26 mm. The Sensitivity determination entry (listed as vancomycin) is “sensitivity”. Under “T30 generation of the strain”, the Inhibition zone diameter is recorded as 27 mm. This molecule also gave an Inhibition zone diameter (T50 generation of the strain) of 26 mm.
With `CC[C@H]1OC(=O)[C@H](C)[C@@H](O[C@H]2C[C@@](C)(OC)[C@@H](O)[C@H](C)O2)[C@H](C)[C@@H](O[C@@H]2O[C@H](C)C[C@H](N(C)C)[C@H]2O)[C@](C)(O)C[C@@H](C)CN(C)[C@H](C)[C@@H](O)[C@]1(C)O` [Azithromycin], the Sensitivity determination result was “Sensitivity”. The Inhibition zone diameter (T0 generation of the strain) was determined as 31 mm. Further, the Sensitivity determination entry (listed as azithromycin) was “sensitivity”. For the setting “T30 generation of the strain”, this molecule came in with an Inhibition zone diameter of 31 mm. Also, the Inhibition zone diameter (T50 generation of the strain) turned out to be 30 mm.
On to `CN(C)[C@@H]1C(O)=C(C(N)=O)C(=O)[C@@]2(O)C(O)=C3C(=O)c4c(O)cccc4[C@@](C)(O)[C@H]3C[C@@H]12` [Tetracycline], for which the Inhibition zone diameter (T0 generation of the strain) is on record as 38 mm, the Inhibition zone diameter (T30 generation of the strain) is 40 mm and the Inhibition zone diameter (T50 generation of the strain) worked out at 39 mm.
For the molecule `CC1(C)S[C@@H]2[C@H](NC(=O)[C@H](N)c3ccccc3)C(=O)N2[C@H]1C(=O)O` [Ampicillin], the Sensitivity determination entry is recorded as “Sensitivity” and the “Sensitivity determination (passage stability test)” value was “mediation”. Under “T0 generation of the strain”, this molecule showed an Inhibition zone diameter of 24 mm. The Sensitivity determination entry (listed as ampicillin) was “sensitivity”. Further, under “T30 generation of the strain”, the Inhibition zone diameter was found to be 24 mm. For the setting “T50 generation of the strain”, this molecule returned an Inhibition zone diameter of 25 mm.
Gentamicin: the Sensitivity determination result is “drug resistance” and the “Sensitivity determination (passage stability test)” value is reported as “drug resistance”. For the setting “T0 generation of the strain”, this molecule came in with an Inhibition zone diameter of 0 mm. This molecule came in with an Inhibition zone diameter (T30 generation of the strain) of 0 mm. For the setting “T50 generation of the strain”, this molecule came in with an Inhibition zone diameter of 0 mm.
For `CC[C@H](C)[C@H](N)C1=N[C@H](C(=O)N[C@@H](CC(C)C)C(=O)N[C@H](CCC(=O)O)C(=O)N[C@H](C(=O)N[C@H]2CCCCNC(=O)[C@H](CC(N)=O)NC(=O)[C@@H](CC(=O)O)NC(=O)[C@H](Cc3cnc[nH]3)NC(=O)[C@@H](Cc3ccccc3)NC(=O)[C@H]([C@@H](C)CC)NC(=O)[C@@H](CCCN)NC2=O)[C@@H](C)CC)CS1` [Bacitracin] ({Ileψ(thiazoline)Cys}-L[dE]IK[dOrn]I[dF]H[dD]N; lactam 4-C), the Sensitivity determination result is reported as “drug resistance” and the “Sensitivity determination (passage stability test)” value is on record as “drug resistance”. The molecule also had an Inhibition zone diameter (T0 generation of the strain) of 0 mm. Moreover, the Inhibition zone diameter (T30 generation of the strain) is given as 0 mm. Moreover, the Inhibition zone diameter (T50 generation of the strain) was found to be 0 mm.
With `Cc1onc(-c2ccccc2)c1C(=O)N[C@@H]1C(=O)N2[C@@H]1SC(C)(C)[C@@H]2C(=O)O` [oxacillin], the Sensitivity determination result is listed as “Mediation” and the “Sensitivity determination (passage stability test)” value is listed as “mediation”. Moreover, where the note is “T0 generation of the strain”, the Inhibition zone diameter worked out at 9 mm. For the setting “T30 generation of the strain”, this molecule registered an Inhibition zone diameter of 10 mm. Where the note is “T50 generation of the strain”, this molecule had an Inhibition zone diameter of 9 mm.
As for `CC[C@H]1OC(=O)[C@H](C)[C@@H](O[C@H]2C[C@@](C)(OC)[C@@H](O)[C@H](C)O2)[C@H](C)[C@@H](O[C@@H]2O[C@H](C)C[C@H](N(C)C)[C@H]2O)[C@](C)(O)C[C@@H](C)C(=O)[C@H](C)[C@@H](O)[C@]1(C)O` [Erythromycin], the Sensitivity determination entry is reported as “Sensitivity”. Moreover, the Inhibition zone diameter (T0 generation of the strain) was determined as 36 mm. In addition, the Sensitivity determination entry (listed as erythromycin) is “sensitivity”. The same molecule gave an Inhibition zone diameter (T30 generation of the strain) of 41 mm. Where the note is “T50 generation of the strain”, the Inhibition zone diameter stood at 39 mm.
Turning to `CO/N=C(\C(=O)N[C@@H]1C(=O)N2C(C(=O)O)=C(CSc3nc(=O)c(=O)[nH]n3C)CS[C@H]12)c1csc(N)n1` [Ceftriaxone], the Sensitivity determination result is listed as “Sensitivity” and the “Sensitivity determination (passage stability test)” value is reported as “mediation”. The Inhibition zone diameter (T0 generation of the strain) was determined as 29 mm. Further, the Sensitivity determination result (listed as ceftriaxone) was “sensitivity”. For the setting “T30 generation of the strain”, the Inhibition zone diameter was found to be 31 mm. The molecule also gave an Inhibition zone diameter (T50 generation of the strain) of 30 mm.
As for `CC1(C)S[C@@H]2[C@H](NC(=O)[C@H](N)c3ccc(O)cc3)C(=O)N2[C@H]1C(=O)O` [Amoxicillin], the Sensitivity determination result is “Sensitivity” and the “Sensitivity determination (passage stability test)” value was “mediation”. The same molecule showed an Inhibition zone diameter (T0 generation of the strain) of 20 mm. Moreover, where the note is “listed as amoxicillin”, the Sensitivity determination entry is given as “sensitivity”. Under “T30 generation of the strain”, this molecule returned an Inhibition zone diameter of 24 mm. Where the note is “T50 generation of the strain”, this molecule returned an Inhibition zone diameter of 23 mm.
For `CCC[C@@H]1C[C@@H](C(=O)N[C@@H]([C@H]2O[C@H](SC)[C@H](O)[C@@H](O)[C@H]2O)[C@H](C)Cl)N(C)C1` [Clindamycin], the Inhibition zone diameter is, setting by setting: (T0 generation of the strain) 35 mm; (T30 generation of the strain) 37 mm; (T50 generation of the strain) 36 mm.
As for `Cc1ncc([N+](=O)[O-])n1CCO` [Metronidazole], the Sensitivity determination result is reported as “drug resistance” and the “Sensitivity determination (passage stability test)” value is on record as “drug resistance”. Moreover, the Inhibition zone diameter (T0 generation of the strain) amounted to 0 mm. This molecule showed an Inhibition zone diameter (T30 generation of the strain) of 0 mm. The Inhibition zone diameter (T50 generation of the strain) amounted to 0 mm.
For the molecule `C[C@@H](O)[C@H]1C(=O)N2C(C(=O)O)=C(SCCN=CN)C[C@H]12` [Imipenem], the Inhibition zone diameter is 40 mm (T0 generation of the strain), 40 mm (T30 generation of the strain) and 40 mm (T50 generation of the strain).
